From patent US20230183193A1, “4-DIFLUOROMETHYL BENZOYL AMIDES WITH HERBICIDAL ACTION” (BAYER CROPSCIENCE AKTIENGESELLSCHAFT, priority 2017, published 2023)

Assays:
Assay type in all cases: in vivo
[1] = tested on: Alopecurus myosuroides; assay: Post-emergence herbicidal action, ALOMY; details: 80 g/ha, Table C
In short: (§1)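 Herbicidal effect is rated visually as percent versus untreated plants (100% = dead, 0% = like control) about 3 weeks after spraying. Plants were sown in sandy loam in the greenhouse and sprayed on green parts at the one-leaf stage, 2 to 3 weeks post-sowing.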

[2] = tested on: Setaria viridis; assay: Pre-emergence herbicidal action, SETVI; details: dosage 320 g/ha, scored visually after 3 weeks vs untreated controls
In short: (§2)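 Percent herbicidal activity rated by eye 3 weeks after pre-emergence soil-surface application, compared with untreated pots. Seeds sat under sandy loam; sprays carried 0.2% wetting agent.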

[3] = tested on: Viola tricolor; assay: Pre-emergence herbicidal action, VIOTR; details: dosage 320 g/ha, scored visually after 3 weeks vs untreated controls
In short: as §2

[4] = tested on: Stellaria media; assay: Post-emergence herbicidal action, STEME; details: 80 g/ha, Table D
In short: as §1

[5] = tested on: Stellaria media; assay: Pre-emergence herbicidal action, STEME; details: dosage 320 g/ha, scored visually after 3 weeks vs untreated controls
In short: as §2

[6] = tested on: Matricaria inodora; assay: Pre-emergence herbicidal action, MATIN; details: dosage 320 g/ha, scored visually after 3 weeks vs untreated controls
In short: as §2

[7] = tested on: Avena fatua; assay: Pre-emergence herbicidal action, AVEFA; details: dosage 320 g/ha, scored visually after 3 weeks vs untreated controls
In short: as §2

[8] = tested on: ECHCG; assay: Post-emergence herbicidal action, ECHCG; details: 80 g/ha, Table C
In short: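 Weed and crop plants grown in sandy loam in the greenhouse, treated at the one-leaf stage 2–3 weeks after sowing. Damage scored visually after about 3 weeks vs untreated controls (0% = control, 100% = dead).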

[9] = tested on: Abutilon theophrasti; assay: Post-emergence herbicidal action, ABUTH; details: 80 g/ha, Table D
In short: as §1

[10] = tested on: Amaranthus retroflexus; assay: Pre-emergence herbicidal action, AMARE; details: dosage 320 g/ha, scored visually after 3 weeks vs untreated controls
In short: as §2

[11] = tested on: Cyperus serotinus; assay: Pre-emergence herbicidal action, CYPES; details: dosage 320 g/ha, scored visually after 3 weeks vs untreated controls
In short: as §2

[12] = tested on: Pharbitis purpureum; assay: Post-emergence herbicidal action, PHBPU; details: 80 g/ha, Table D
In short: as §1

[13] = tested on: Avena fatua; assay: Post-emergence herbicidal action, AVEFA; details: 80 g/ha, Table C
In short: as §1

[14] = tested on: Setaria viridis; assay: Post-emergence herbicidal action, SETVI; details: 80 g/ha, Table C
In short: as §1

[15] = tested on: Abutilon theophrasti; assay: Pre-emergence herbicidal action, ABUTH; details: dosage 320 g/ha, scored visually after 3 weeks vs untreated controls
In short: as §2

[16] = tested on: Alopecurus myosuroides; assay: Pre-emergence herbicidal action, ALOMY; details: dosage 320 g/ha, scored visually after 3 weeks vs untreated controls
In short: as §2

[17] = tested on: Viola tricolor; assay: Post-emergence herbicidal action, VIOTR; details: 80 g/ha, Table D
In short: as §1

[18] = tested on: Amaranthus retroflexus; assay: Post-emergence herbicidal action, AMARE; details: 80 g/ha, Table D
In short: as §1

With CCn1nnnc1NC(=O)c1ccc(C(F)F)c(SC)c1C1CC1 [Example 2-25] the “herbicidal activity ALOMY” value [1] was 100%, the “herbicidal activity SETVI” value [2] was 100% and the “herbicidal activity VIOTR” value [3] was 100%. The “Herbicidal activity STEME” value [4] was 100%, the “Herbicidal activity STEME” value [5] was 100% and the “herbicidal activity MATIN” value [6] was 100%. The “herbicidal activity AVEFA” value [7] was 100%, the “Herbicidal activity ECHCG” value [8] was 100% and the “herbicidal activity ABUTH” value [9] was 100%. The “herbicidal activity AMARE” value [10] was 100%, the “herbicidal activity CYPES” value [11] was 100% and the “Herbicidal activity PHBPU” value [12] was 100%. For the same compound, the “herbicidal activity AVEFA” value [13] was 100%, the “herbicidal activity SETVI” value [14] was 100% and the “herbicidal activity ABUTH” value [15] was 100%. For the same compound, the “herbicidal activity ALOMY” value [16] was 100%, the “herbicidal activity VIOTR” value [17] was 100% and the “herbicidal activity AMARE” value [18] was 100%.

With CCn1nnnc1NC(=O)c1ccc(C(F)F)c([S+](C)[O-])c1C1CC1 (stereo not drawn) [Example 2-26] the “herbicidal activity ALOMY” value [1] was 90%, the “herbicidal activity SETVI” value [2] was 100% and the “herbicidal activity VIOTR” value [3] was 100%. For the same compound, the “Herbicidal activity STEME” value [4] was 100%, the “Herbicidal activity STEME” value [5] was 100% and the “herbicidal activity MATIN” value [6] was 100%. For the same compound, the “herbicidal activity AVEFA” value [7] was 100%, the “Herbicidal activity ECHCG” value [8] was 100% and the “herbicidal activity ABUTH” value [9] was 90%. For the same compound, the “herbicidal activity AMARE” value [10] was 100%, the “herbicidal activity CYPES” value [11] was 90% and the “Herbicidal activity PHBPU” value [12] was 90%. For the same compound, the “herbicidal activity AVEFA” value [13] was 100%, the “herbicidal activity SETVI” value [14] was 100% and the “herbicidal activity ABUTH” value [15] was 100%. For the same compound, the “herbicidal activity ALOMY” value [16] was 100%, the “herbicidal activity VIOTR” value [17] was 100% and the “herbicidal activity AMARE” value [18] was 100%.

CCn1nnnc1NC(=O)c1ccc(C(F)F)c(S(C)(=O)=O)c1C1CC1 [Example 2-27] was tested, and the “herbicidal activity ALOMY” value [1] was 90%, the “herbicidal activity SETVI” value [2] was 100% and the “herbicidal activity VIOTR” value [3] was 100%. The “Herbicidal activity STEME” value [4] was 100%, the “Herbicidal activity STEME” value [5] was 100% and the “herbicidal activity MATIN” value [6] was 100%. For the same compound, the “herbicidal activity AVEFA” value [7] was 100%, the “Herbicidal activity ECHCG” value [8] was 100% and the “herbicidal activity ABUTH” value [9] was 100%. For the same compound, the “herbicidal activity AMARE” value [10] was 100%, the “herbicidal activity CYPES” value [11] was 100% and the “Herbicidal activity PHBPU” value [12] was 90%. For the same compound, the “herbicidal activity AVEFA” value [13] was 100%, the “herbicidal activity SETVI” value [14] was 100% and the “herbicidal activity ABUTH” value [15] was 100%. For the same compound, the “herbicidal activity ALOMY” value [16] was 100%, the “herbicidal activity VIOTR” value [17] was 100% and the “herbicidal activity AMARE” value [18] was 100%.

With CCSc1c(C(F)F)ccc(C(=O)Nc2nnnn2CC)c1C1CC1 [Example 2-28] the “herbicidal activity ALOMY” value [1] was 90%, the “herbicidal activity SETVI” value [2] was 100% and the “herbicidal activity VIOTR” value [3] was 100%. For the same compound, the “Herbicidal activity STEME” value [4] was 100%, the “Herbicidal activity STEME” value [5] was 100% and the “herbicidal activity MATIN” value [6] was 100%. For the same compound, the “herbicidal activity AVEFA” value [7] was 100%, the “Herbicidal activity ECHCG” value [8] was 100% and the “herbicidal activity ABUTH” value [9] was 100%. For the same compound, the “herbicidal activity AMARE” value [10] was 100%, the “herbicidal activity CYPES” value [11] was 100% and the “Herbicidal activity PHBPU” value [12] was 100%. For the same compound, the “herbicidal activity AVEFA” value [13] was 100%, the “herbicidal activity SETVI” value [14] was 100% and the “herbicidal activity ABUTH” value [15] was 100%. The “herbicidal activity ALOMY” value [16] was 100%, the “herbicidal activity VIOTR” value [17] was 100% and the “herbicidal activity AMARE” value [18] was 100%.

With CCn1nnnc1NC(=O)c1ccc(C(F)F)c([S+]([O-])CC)c1C1CC1 (stereo not drawn) [Example 2-29] the “herbicidal activity ALOMY” value [1] was 100%, the “herbicidal activity SETVI” value [2] was 100% and the “herbicidal activity VIOTR” value [3] was 100%. For the same compound, the “Herbicidal activity STEME” value [4] was 100%, the “Herbicidal activity STEME” value [5] was 100% and the “herbicidal activity MATIN” value [6] was 100%. The “herbicidal activity AVEFA” value [7] was 100%, the “Herbicidal activity ECHCG” value [8] was 100% and the “herbicidal activity ABUTH” value [9] was 100%. For the same compound, the “herbicidal activity AMARE” value [10] was 100%, the “herbicidal activity CYPES” value [11] was 90% and the “Herbicidal activity PHBPU” value [12] was 90%. For the same compound, the “herbicidal activity AVEFA” value [13] was 90%, the “herbicidal activity SETVI” value [14] was 100% and the “herbicidal activity ABUTH” value [15] was 100%. The “herbicidal activity ALOMY” value [16] was 100%, the “herbicidal activity VIOTR” value [17] was 100% and the “herbicidal activity AMARE” value [18] was 100%.

In the case of CCn1nnnc1NC(=O)c1ccc(C(F)F)c(S(=O)(=O)CC)c1C1CC1 [Example 2-30], the “herbicidal activity ALOMY” value [1] is reported as 90%, the “herbicidal activity SETVI” value [2] is reported as 100% and the “herbicidal activity VIOTR” value [3] is reported as 100%. The “Herbicidal activity STEME” value [4] was 100%, the “Herbicidal activity STEME” value [5] was 100% and the “herbicidal activity MATIN” value [6] was 100%. The “herbicidal activity AVEFA” value [7] was 100%, the “Herbicidal activity ECHCG” value [8] was 100% and the “herbicidal activity ABUTH” value [9] was 100%. The “herbicidal activity AMARE” value [10] was 100%, the “herbicidal activity CYPES” value [11] was 90% and the “Herbicidal activity PHBPU” value [12] was 90%. The “herbicidal activity AVEFA” value [13] was 90%, the “herbicidal activity SETVI” value [14] was 100% and the “herbicidal activity ABUTH” value [15] was 100%. For the same compound, the “herbicidal activity ALOMY” value [16] was 100%, the “herbicidal activity VIOTR” value [17] was 100% and the “herbicidal activity AMARE” value [18] was 100%.

For CCn1nnnc1NC(=O)c1ccc(C(F)F)c(SC)c1F [Example 2-37], the “herbicidal activity ALOMY” value [1] was 80%, the “herbicidal activity SETVI” value [2] was 100% and the “herbicidal activity VIOTR” value [3] was 100%. The “Herbicidal activity STEME” value [4] was 100%, the “Herbicidal activity STEME” value [5] was 100% and the “herbicidal activity MATIN” value [6] was 100%. For the same compound, the “herbicidal activity AVEFA” value [7] was 100%, the “Herbicidal activity ECHCG” value [8] was 100% and the “herbicidal activity ABUTH” value [9] was 100%. For the same compound, the “herbicidal activity AMARE” value [10] was 100%, the “herbicidal activity CYPES” value [11] was 80% and the “Herbicidal activity PHBPU” value [12] was 100%. For the same compound, the “herbicidal activity AVEFA” value [13] was 90%, the “herbicidal activity SETVI” value [14] was 100% and the “herbicidal activity ABUTH” value [15] was 100%. The “herbicidal activity ALOMY” value [16] was 90%, the “herbicidal activity VIOTR” value [17] was 90% and the “herbicidal activity AMARE” value [18] was 100%.

CCn1nnnc1NC(=O)c1ccc(C(F)F)c([S+](C)[O-])c1F (stereo not drawn) [Example 2-38] was tested, and the “herbicidal activity ALOMY” value [1] was 90%, the “herbicidal activity SETVI” value [2] was 100% and the “herbicidal activity VIOTR” value [3] was 100%. The “Herbicidal activity STEME” value [4] was 100%, the “Herbicidal activity STEME” value [5] was 100% and the “herbicidal activity MATIN” value [6] was 100%. For the same compound, the “herbicidal activity AVEFA” value [7] was 100%, the “Herbicidal activity ECHCG” value [8] was 100% and the “herbicidal activity ABUTH” value [9] was 90%. The “herbicidal activity AMARE” value [10] was 100%, the “herbicidal activity CYPES” value [11] was 100% and the “Herbicidal activity PHBPU” value [12] was 90%. For the same compound, the “herbicidal activity AVEFA” value [13] was 90%, the “herbicidal activity SETVI” value [14] was 100% and the “herbicidal activity ABUTH” value [15] was 100%. For the same compound, the “herbicidal activity ALOMY” value [16] was 100%, the “herbicidal activity VIOTR” value [17] was 100% and the “herbicidal activity AMARE” value [18] was 100%.

For CCn1nnnc1NC(=O)c1ccc(C(F)F)c([S+]([O-])CC)c1F (stereo not drawn) [Example 2-41], the “herbicidal activity ALOMY” value [1] was 80%, the “herbicidal activity SETVI” value [2] was 100% and the “herbicidal activity VIOTR” value [3] was 100%. For the same compound, the “Herbicidal activity STEME” value [4] was 100%, the “Herbicidal activity STEME” value [5] was 100% and the “herbicidal activity MATIN” value [6] was 100%. The “herbicidal activity AVEFA” value [7] was 100%, the “Herbicidal activity ECHCG” value [8] was 100% and the “herbicidal activity ABUTH” value [9] was 100%. For the same compound, the “herbicidal activity AMARE” value [10] was 100%, the “herbicidal activity CYPES” value [11] was 90% and the “Herbicidal activity PHBPU” value [12] was 90%. For the same compound, the “herbicidal activity AVEFA” value [13] was 90%, the “herbicidal activity SETVI” value [14] was 100% and the “herbicidal activity ABUTH” value [15] was 100%. The “herbicidal activity ALOMY” value [16] was 100%, the “herbicidal activity VIOTR” value [17] was 100% and the “herbicidal activity AMARE” value [18] was 90%.
